Test results from PubChem BioAssay (NCI).
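Growth conditions: 96-well plates. Treatment: test compound, 48 hours, 5 concentrations. Analysis: linear interpolation between bracketing concentrations; unreached endpoints set to highest concentration. At the TGI there is no net growth.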

Experiments:
Assay in all cases: inhibition of tumour cell growth, NCI panel, 48 h
786-0 renal = test system: 786-0 renal
A549 NSCLC = test system: A549 NSCLC
ACHN renal = test system: ACHN renal
CAKI-1 renal = test system: CAKI-1 renal
CCRF-CEM leukemia = test system: CCRF-CEM leukemia
COLO 205 colon = test system: COLO 205 colon
DLD-1 colon = test system: DLD-1 colon
DMS 114 small cell lung = test system: DMS 114 small cell lung
DMS 273 small cell lung = test system: DMS 273 small cell lung
EKVX NSCLC = test system: EKVX NSCLC
HCT-15 colon = test system: HCT-15 colon
HL-60(TB) leukemia = test system: HL-60(TB) leukemia
HOP-18 NSCLC = test system: HOP-18 NSCLC
HOP-62 NSCLC = test system: HOP-62 NSCLC
HOP-92 NSCLC = test system: HOP-92 NSCLC
HT29 colon = test system: HT29 colon
IGROV1 ovarian = test system: IGROV1 ovarian
K-562 leukemia = test system: K-562 leukemia
KM20L2 colon = test system: KM20L2 colon
LOX IMVI melanoma = test system: LOX IMVI melanoma
M14 melanoma = test system: M14 melanoma
M19-MEL melanoma = test system: M19-MEL melanoma
MALME-3M melanoma = test system: MALME-3M melanoma
MOLT-4 leukemia = test system: MOLT-4 leukemia
NCI-H23 lung = test system: NCI-H23 lung
NCI-H460 lung = test system: NCI-H460 lung
OVCAR-3 ovarian = test system: OVCAR-3 ovarian
OVCAR-4 ovarian = test system: OVCAR-4 ovarian
OVCAR-8 ovarian = test system: OVCAR-8 ovarian
RPMI-8226 leukemia = test system: RPMI-8226 leukemia
RXF 393 renal = test system: RXF 393 renal
RXF-631 renal = test system: RXF-631 renal
SF-295 CNS = test system: SF-295 CNS
SF-539 CNS = test system: SF-539 CNS
SK-MEL-2 melanoma = test system: SK-MEL-2 melanoma
SK-MEL-28 melanoma = test system: SK-MEL-28 melanoma
SK-MEL-5 melanoma = test system: SK-MEL-5 melanoma
SK-OV-3 ovarian = test system: SK-OV-3 ovarian
SN12C renal = test system: SN12C renal
SNB-19 CNS = test system: SNB-19 CNS
SNB-75 CNS = test system: SNB-75 CNS
SNB-78 CNS = test system: SNB-78 CNS
SW-620 colon = test system: SW-620 colon
TK-10 renal = test system: TK-10 renal
U251 CNS = test system: U251 CNS
UACC-257 melanoma = test system: UACC-257 melanoma
UACC-62 melanoma = test system: UACC-62 melanoma
UO-31 renal = test system: UO-31 renal
XF 498 CNS = test system: XF 498 CNS
A498 renal = test system: A498 renal
HCC-2998 colon = test system: HCC-2998 colon
HCT-116 colon = test system: HCT-116 colon
KM12 colon = test system: KM12 colon
LXFL 529 NSCLC = test system: LXFL 529 NSCLC
NCI-H226 lung = test system: NCI-H226 lung
NCI-H522 lung = test system: NCI-H522 lung
OVCAR-5 ovarian = test system: OVCAR-5 ovarian
SF-268 CNS = test system: SF-268 CNS
SR leukemia = test system: SR leukemia

## CC1OC(n2cc(Cl)c(=O)[nH]c2=O)C=C(OC(=O)c2ccccc2)C1=O (stereo not drawn)
786-0 renal
  TGI: > 100 µM
A549 NSCLC
  TGI: > 100 µM
ACHN renal
  TGI: > 100 µM
CAKI-1 renal
  TGI: > 100 µM
CCRF-CEM leukemia
  TGI: > 100 µM
COLO 205 colon
  TGI: > 100 µM
DLD-1 colon
  TGI: > 100 µM
DMS 114 small cell lung
  TGI: > 100 µM
DMS 273 small cell lung
  TGI: > 100 µM
EKVX NSCLC
  TGI: > 100 µM
HCT-15 colon
  TGI: > 100 µM
HL-60(TB) leukemia
  TGI: > 100 µM
HOP-18 NSCLC
  TGI: > 100 µM
HOP-62 NSCLC
  TGI: > 100 µM
HOP-92 NSCLC
  TGI: > 100 µM
HT29 colon
  TGI: > 100 µM
IGROV1 ovarian
  TGI: > 100 µM
K-562 leukemia
  TGI: > 100 µM
KM20L2 colon
  TGI: > 100 µM
LOX IMVI melanoma
  TGI: > 100 µM
M14 melanoma
  TGI: > 100 µM
M19-MEL melanoma
  TGI: > 100 µM
MALME-3M melanoma
  TGI: > 100 µM
MOLT-4 leukemia
  TGI: > 100 µM
NCI-H23 lung
  TGI: > 100 µM
NCI-H460 lung
  TGI: > 100 µM
OVCAR-3 ovarian
  TGI: > 100 µM
OVCAR-4 ovarian
  TGI: > 100 µM
OVCAR-8 ovarian
  TGI: > 100 µM
RPMI-8226 leukemia
  TGI: > 100 µM
RXF 393 renal
  TGI: > 100 µM
RXF-631 renal
  TGI: > 100 µM
SF-295 CNS
  TGI: > 100 µM
SF-539 CNS
  TGI: > 100 µM
SK-MEL-2 melanoma
  TGI: > 100 µM
SK-MEL-28 melanoma
  TGI: > 100 µM
SK-MEL-5 melanoma
  TGI: > 100 µM
SK-OV-3 ovarian
  TGI: > 100 µM
SN12C renal
  TGI: > 100 µM
SNB-19 CNS
  TGI: > 100 µM
SNB-75 CNS
  TGI: > 100 µM
SNB-78 CNS
  TGI: > 100 µM
SW-620 colon
  TGI: > 100 µM
TK-10 renal
  TGI: > 100 µM
U251 CNS
  TGI: > 100 µM
UACC-257 melanoma
  TGI: > 100 µM
UACC-62 melanoma
  TGI: > 100 µM
UO-31 renal
  TGI: > 100 µM
XF 498 CNS
  TGI: > 100 µM

## COc1ccc(-c2nc(Sc3c([N+](=O)[O-])ncn3C)n[nH]2)cc1
786-0 renal
  TGI: 13.8 µM
A498 renal
  TGI: 37.6 µM
A549 NSCLC
  TGI: > 100 µM
ACHN renal
  TGI: 23.1 µM
CAKI-1 renal
  TGI: > 100 µM
CCRF-CEM leukemia
  TGI: 40.2 µM
COLO 205 colon
  TGI: 3.28 µM
DLD-1 colon
  TGI: 6.82 µM
DMS 114 small cell lung
  TGI: 6.64 µM
DMS 273 small cell lung
  TGI: 4.77 µM
EKVX NSCLC
  TGI: > 100 µM
HCC-2998 colon
  TGI: 30.2 µM
HCT-116 colon
  TGI: > 100 µM
HOP-18 NSCLC
  TGI: 5.53 µM
HOP-62 NSCLC
  TGI: 89.9 µM
HOP-92 NSCLC
  TGI: 8.88 µM
IGROV1 ovarian
  TGI: 77.3 µM
K-562 leukemia
  TGI: > 100 µM
KM12 colon
  TGI: 4.31 µM
LOX IMVI melanoma
  TGI: 7.92 µM
LXFL 529 NSCLC
  TGI: 13 µM
M14 melanoma
  TGI: 4.96 µM
M19-MEL melanoma
  TGI: > 100 µM
MALME-3M melanoma
  TGI: 9.9 µM
MOLT-4 leukemia
  TGI: 9.56 µM
NCI-H226 lung
  TGI: 38.1 µM
NCI-H23 lung
  TGI: 3.97 µM
NCI-H460 lung
  TGI: 69.1 µM
NCI-H522 lung
  TGI: 5.75 µM
OVCAR-4 ovarian
  TGI: 81.2 µM
OVCAR-5 ovarian
  TGI: > 100 µM
OVCAR-8 ovarian
  TGI: 5.4 µM
RPMI-8226 leukemia
  TGI: 23.9 µM
RXF 393 renal
  TGI: 4.28 µM
RXF-631 renal
  TGI: 22.2 µM
SF-268 CNS
  TGI: 21.1 µM
SF-295 CNS
  TGI: 16.5 µM
SF-539 CNS
  TGI: 4.18 µM
SK-MEL-2 melanoma
  TGI: 4.95 µM
SK-MEL-28 melanoma
  TGI: 22 µM
SK-MEL-5 melanoma
  TGI: 6.83 µM
SK-OV-3 ovarian
  TGI: > 100 µM
SN12C renal
  TGI: 8.23 µM
SNB-19 CNS
  TGI: 39.3 µM
SNB-75 CNS
  TGI: > 100 µM
SNB-78 CNS
  TGI: > 100 µM
SR leukemia
  TGI: 37.3 µM
SW-620 colon
  TGI: > 100 µM
TK-10 renal
  TGI: 44.2 µM
U251 CNS
  TGI: 5.55 µM
UACC-257 melanoma
  TGI: 39.2 µM
UACC-62 melanoma
  TGI: 11.1 µM
UO-31 renal
  TGI: > 100 µM
XF 498 CNS
  TGI: 9.78 µM
